Here are results for 21 compounds from US7504537B2, “Hydroxamic acid derivative and MMP inhibitor containing the same as active ingredient” (Dainippon Sumitomo Pharma Co., Ltd., priority 2001, dated 2009).

One assay addresses T1, MMP-2 (Homo sapiens, UniProt P08253).
T1 construct: purchased Boeringer Manheim (Roche Diagnostics)
T1 sequence (P08253 110-660): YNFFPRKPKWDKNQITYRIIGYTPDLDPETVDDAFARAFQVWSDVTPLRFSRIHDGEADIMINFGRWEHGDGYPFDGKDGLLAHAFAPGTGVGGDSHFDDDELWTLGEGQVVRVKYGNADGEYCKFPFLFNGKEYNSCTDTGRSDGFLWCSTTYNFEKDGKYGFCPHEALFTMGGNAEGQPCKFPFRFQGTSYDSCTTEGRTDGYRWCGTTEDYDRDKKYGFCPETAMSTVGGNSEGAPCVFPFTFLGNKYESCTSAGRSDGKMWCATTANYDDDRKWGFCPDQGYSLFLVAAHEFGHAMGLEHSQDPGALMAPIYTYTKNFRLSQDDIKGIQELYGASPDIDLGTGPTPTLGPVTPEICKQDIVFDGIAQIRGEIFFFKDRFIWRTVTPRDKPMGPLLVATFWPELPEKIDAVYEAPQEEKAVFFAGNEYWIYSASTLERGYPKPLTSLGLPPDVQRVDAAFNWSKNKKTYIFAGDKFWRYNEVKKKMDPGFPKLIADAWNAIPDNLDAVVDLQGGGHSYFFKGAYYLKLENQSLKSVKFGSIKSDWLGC
The assay can be described thus: Test 3 MMP-2 inhibition activity test (gelatinase activity assay kit). The class given is biochemical. To be noted: activated human MMP-2, biotin labeled gelatin. How it is done:
TTC buffer solution was attached to a MMP-2 enzyme assay kit, and the solution was made of 50 mM tris, 1 mM calcium chloride solution and 0.05% Triton X-100 solution, and was adjusted to pH 7.5.
Test 3 MMP-2 Inhibition Activity Test
MMP-2 enzyme assay kit (Gelatinase Activity Assay, Roche.Diagonistics) was used.
A mixture of 1.2U human MMP-2 (20 μl, Boeringer Manheim 30U freezed dry product), TTC buffer (980 μl) and 2.5 mM 4-aminophenyl mercuric acetate solution (144 μl) was incubated at 37° C. for 30 minutes and then it was preserved under ice cooling until use.
A mixture of DMSO solution (2 μl) containing a definite concentration of the compound, biotin labeled gelatin (188 μl) and activated MMP-2 solution (10 μl) was put on a 96 well-assay plate (protein nonabsorbance type), well agitated and incubated at 37° C. for 1 hour. This solution was transferred to a Streptavidin-coating plate and agitated at 15° C, to 30° C. for 30 minutes. And then the solution was washed with TTC buffer solution (200 μl) three times. Thereto was added Streptavidin-POD (200 μl) and the mixture was agitated at 15° C. to 25° C. for 60 minutes, followed by washing with TTC buffer (200 μl) three times. Then, ABTS solution (200 μl) was added thereto and after standing at room temperature for 40 minutes, furuorescence intensity was measure at 405 nm and IC50 was calculated.
In case of the above test, a control and a blank were prepared when the well was prepared as mentioned below. DMSO (2 μl) was used as a control instead of a sample solution. In the case of a blank, DMSO (2 μl) instead of the sample solution and the solution (10 μl) prepared in the same manner as preparation of activated MMP-2 solution but without adding 1.2U human MMP-2, instead of activated MMP-2 solution (10 μl), were used.

The next assay concerns the target T2, MMP-14 (MT1-MMP) (Homo sapiens, UniProt P50281).
T2 construct: purchased Biogenesis, supplied by Cosmobio (Nakarai Tesku)
The assay can be described thus: Test 5 MMP-14 (MT1-MMP) inhibiting activity test. It is filed as biochemical. Particulars: human recombinant MT1-MMP, 37° C.; read-out: MMP-14 inhibition activity value. The procedure: Test 5 MMP-14 (MTI-MMP) Inhibiting Activity Test
Human recombinant MTI-MMP used the product prepared by Biogenesis and supplied by Cosmobio (Nakarai Tesku).
An assay buffer solution (70 μl, pH 7.5 solution containing 0.1M Tris-HCl solution, 0.1M calcium chloride solution, 10 mM sodium chloride solution and 0.05% Brij-35 solution), 0.1 w/w % a compound in DMSO (10 μl), MMP substrate solution (MOCAc-Pro-Leu-Gly-Leu-A2pr(DNP)-Ala-Arg-NH2 (Peptide Lab.) diluted with the assay buffer solution (50 μM, 10 μl)) and human recombinant MT1-MMP (0.4 pg/10 μl/well) were well agitated under stirring. The enzyme activity of the mixture was measured based on fluorescence intensity (λex 320 nm/λem 405 nm) by a fluorescence reader. After the mixture was incubated at 37° C. for 0.5 hour, the fluorescence intensity (λex 320 nm/λem 405 nm) was measured every hour, and IC50 was calculated.
The inhibition value was calculated by withdrawing average value of blank well from fluorescence mean value of well in which MT1-MMP was added. As the blank was used the mixed solution prepared by adding assay buffer (10 μl) instead of MT1-MMP solution.

The structures appear in SMILES notation.

Consider `CCOC(=O)CCN(C1(C(=O)NO)CCCC1)S(=O)(=O)c1ccc(Oc2ccc(S(C)(=O)=O)cc2)cc1` [Example 26, Ethyl N-{1-[(hydroxyamino)carbonyl]cyclopentyl}-N-({4-[4-(methylsulfonyl)phenoxy]phenyl}sulfonyl)-β-alaninate], for which the IC50 at MMP-2 amounted to 300 nM; on MMP-14 (MT1-MMP) it was 395 nM.

Turning to `CCOC(=O)CN(CC(=O)NO)S(=O)(=O)c1ccc(Oc2ccc(S(C)(=O)=O)cc2)cc1` [Example 22, Ethyl N-{[(hydroxyamino)carbonyl]methyl}-N-({4-[4-(methylsulfonyl)phenoxy]phenyl}sulfonyl)-glycinate], the IC50 amounted to 1200 nM against MMP-2 and 668 nM on MMP-14 (MT1-MMP). Take `CS(=O)(=O)c1ccc(Oc2ccc(S(=O)(=O)N(Cc3ccccc3)C3(C(=O)NO)CCOCC3)cc2)cc1` [Example 12, 4-[Benzyl({4-[4-(methylsulfonyl)phenoxy]phenyl}sulfonyl)amino]-N-hydroxytetrahydoro-2H-pyrane-4-carboxamide]: the results for the IC50 against MMP-2 and at MMP-14 (MT1-MMP) were below 100 nM and 893 nM, respectively. `CC(C)CN(C1(C(=O)NO)CCCC1)S(=O)(=O)c1ccc(Oc2ccc(S(C)(=O)=O)cc2)cc1` [Example 2, N-hydroxy 1-[isobutyl({4-[4-(methylsulfonyl)phenoxy]phenyl}sulfonyl)amino]cyclopentanecarboxamide]: the figures for the IC50 on MMP-2 and on MMP-14 (MT1-MMP) were below 100 nM and 3800 nM, respectively. As for `COc1ccc(Oc2ccc(CC3Sc4ccc(C(=O)O)cc4N(CC(=O)NO)C3=O)cc2)cc1` (centres unmarked) [compound 1, reference compound], the IC50 on MMP-2 was above 100 nM; at MMP-14 (MT1-MMP), 87.3 nM. Turning to `CC(C)OCCN(CC(=O)NO)S(=O)(=O)c1ccc(Oc2ccc(S(C)(=O)=O)cc2)cc1` [Example 3, N^1-hydroxy-N^2-(2-isopropoxyethyl)-N^2-({4-[4-(methylsulfonyl)phenoxy]phenyl}sulfonyl)glycinamide], the IC50 against MMP-2 was above 100 nM; on MMP-14 (MT1-MMP), 172 nM. For `CS(=O)(=O)c1ccc(Oc2ccc(S(=O)(=O)N(CCC(=O)O)C3(C(=O)NO)CCCC3)cc2)cc1` [Example 27, N-{1-[(Hydroxyamino)carbonyl]cyclopentyl}-N-({4-[4-(methylsulfonyl)phenoxy]phenyl}sulfonyl)-β-alanine], in that order: above 10000 nM and above 5000 nM.

With `CS(=O)(=O)c1ccc(Oc2ccc(CC3Sc4ccc(C(=O)O)cc4N(CC(=O)NO)C3=O)cc2)cc1` (centres unmarked) [Example 50], the values for the IC50 against MMP-2 and on MMP-14 (MT1-MMP) were above 100 nM and above 1000 nM, respectively.

With `CS(=O)(=O)c1ccc(Oc2ccc(S(=O)(=O)NC3(C(=O)NO)CCC3)cc2)cc1` [Example 48, N-Hydroxy-1-[({4-[4-(methylsulfonyl)phenoxy]phenyl}sulfonyl)amino]cyclobutanecarboxamide], the IC50 on MMP-2 is above 100 nM; at MMP-14 (MT1-MMP), above 1500 nM. Take `CS(=O)(=O)c1ccc(Oc2ccc(S(=O)(=O)N(CC(=O)NO)Cc3ccncc3)cc2)cc1` [Example 42, N′^1′-Hydroxy-N′^2′-({4-[4-(methylsulfonyl)phenoxy]phenyl}sulfonyl)-N′^2′-(4-pyridinylmethyl)glycinamide]: the IC50 was below 100 nM against MMP-2 and above 5000 nM at MMP-14 (MT1-MMP). Take `COCCCN(CC(=O)NO)S(=O)(=O)c1ccc(Oc2ccc(S(C)(=O)=O)cc2)cc1` [Example 43, N^1-Hydroxy-N^2-(3-methoxypropyl)-N^2-({4-[4-(methylsulfonyl)phenoxy]phenyl}sulfonyl)glycinamide]: the IC50 on MMP-2 turned out to be 1500 nM; at MMP-14 (MT1-MMP) it was 82 nM. On the same counts, the results for `CCOCCN(C1(C(=O)NO)CCCC1)S(=O)(=O)c1ccc(Oc2ccc(S(C)(=O)=O)cc2)cc1` [Example 45, 1-[(2-Ethoxyethyl)({4-[4-(methylsulfonyl)phenoxy]phenyl}sulfonyl)amino]-N-hydroxycyclopentanecarboxamide] are above 100 nM and above 1500 nM. On the same counts, the results for `CCOC(=O)CN(C1(C(=O)NO)CCC1)S(=O)(=O)c1ccc(Oc2ccc(S(C)(=O)=O)cc2)cc1` [Example 46, Ethyl N-{1-[(hydroxyamino)carbonyl]cyclobutyl}-N-({4-[4-(methylsulfonyl)phenoxy]phenyl}sulfonyl)glycinate] are above 100 nM and above 1500 nM. On the same counts, the results for `CCOC(=O)CN(C1(C(=O)NO)CCCC1)S(=O)(=O)c1ccc(Oc2ccc(S(C)(=O)=O)cc2)cc1` [Example 23, Ethyl N-{1-[(hydroxyamino)carbonyl]cyclopentyl}-N-({4-[4-(methylsulfonyl)phenoxy]phenyl}sulfonyl)glycinate] are 2100 nM and above 5000 nM. For `CS(=O)(=O)c1ccc(Oc2ccc(S(=O)(=O)N(CCC(=O)O)CC(=O)NO)cc2)cc1` [Example 36, N-[2-(Hydroxyamino)-2-oxoethyl]-N-({4-[4-(methylsulfonyl)phenoxy]phenyl}sulfonyl)-β-alanine], the values for the IC50 on MMP-2 and on MMP-14 (MT1-MMP) were 2900 nM and 938 nM, respectively. On the same counts, the results for `CS(=O)(=O)c1ccc(Oc2ccc(S(=O)(=O)N(CC(=O)O)CC(=O)NO)cc2)cc1` [Example 24, N-{[(Hydroxyamino)carbonyl]methyl}-N-({4-[4-(methylsulfonyl)phenoxy]phenyl}sulfonyl)-glycine] are above 10000 nM and above 5000 nM.

For the compound `CS(=O)(=O)c1ccc(Oc2ccc(S(=O)(=O)NCC(=O)NO)cc2)cc1` [Example 13, N′^1′-Hydroxy-N′^2′-({4-[4-(methylsulfonyl)phenoxy]phenyl}sulfonyl)glycinamide], the IC50 against MMP-2 was 900 nM; on MMP-14 (MT1-MMP), above 5000 nM. On to `CC(C)CN(C1(C(=O)NO)CCOCC1)S(=O)(=O)c1ccc(Oc2ccc(S(C)(=O)=O)cc2)cc1` [Example 15, N-Hydroxy-4-[isobutyl({4-[4-(methylsulfonyl)phenoxy]phenyl}sulfonyl)amino]tetrahydro-2H-pyrane-4-carboxamide], for which the IC50 on MMP-2 was 300 nM; at MMP-14 (MT1-MMP), above 5000 nM. For `CC(C)(C(=O)NO)N(Cc1ccccc1)S(=O)(=O)c1ccc(Oc2ccc(S(C)(=O)=O)cc2)cc1` [Example 10, N′^2′-Benzyl-N′^1′-hydroxy-2-methyl-N′^2′-({4-[4-(methylsulfonyl)phenoxy]phenyl}sulfonyl)alaninamide], in that order: 2400 nM and above 5000 nM. As to `CCOC(=O)CCN(C1(C(=O)NO)CCOCC1)S(=O)(=O)c1ccc(Oc2ccc(S(C)(=O)=O)cc2)cc1` [Example 31, Ethyl N-{4-[(hydroxyamino)carbonyl]tetrahydro-2H-pyran-4-yl}-N-({4-[4-(methylsulfonyl)phenoxy]phenyl}sulfonyl)-β-alaninate], the IC50 on MMP-2 is 800 nM; on MMP-14 (MT1-MMP) it was above 5000 nM. Turning to `CC(C)CN(C1(C(=O)NO)CCC1)S(=O)(=O)c1ccc(Oc2ccc(S(C)(=O)=O)cc2)cc1` [Example 18, N-Hydroxy-1-[isobutyl({4-[4-(methylsulfonyl)phenoxy]phenyl}sulfonyl)amino]cyclobutanecarboxamide], the IC50 on MMP-14 (MT1-MMP) worked out at 799 nM.
